This note sets out measurements from patent US6489318B1, “Ethylidene derivatives of tricyclic carbapenems” (LEK, tovarna farmacevtskih in kemicnih izdelkov, d.d., priority 1996, dated 2002).

In this experiment the test system is β-lactamase of Escherichia coli 3.5.2.6. As to the kind of experiment: Hydrolysis of nitrocefin with β-lactamase in the presence of inhibitors (spectrophotometric, 495 nm). The format is biochemical. The conditions noted are these: substrate nitrocefin 190 μmole/l; inhibitor 10 μmole/l. The method, then:
Determination of inhibitory action of the compounds of the formula I upon the enzyme β-lactamase
The inhibitory action of the compounds of the formula I was determined according to standard methodology (Bush, K. and Sykes, R. B. Methods of Enzymatic Analysis, Third Edition, Vol. 4, p. 280, Verlag Chemie GmbH, Weinheim, 1984). The method comprises a spectrophotometric quantitative (band at 495 nm) measurement of catalytic action of the enzyme β-lactamase from the E. coli EC 3.5.2.6 strain. As a substrate nitrocefin ((7R)-3-((E)-2,4-dinitrostiryl)-7-(2-thienylacetamido)-3-cefem-4-carboxylic acid) was used which has the broadest spectrum of susceptibility and sensibility. The hydrolysis of nitrocefin in the presence of an inhibitor of the enzyme β-lactamase was determined.
Hydrolysis of nitrocefin with β-lactamase of Escherichia coli 3.5.2.6 in the presence of inhibitors

In the case of `C/C=C1/C(=O)N2C(C(=O)O)=C3CCSC[C@H]3[C@H]12` [compound A, sodium (8R,9R)-10-((E)-ethylidene)-11-oxo-1-aza-6-thiatricyclo[7.2.0.0^3,8]undec-2-ene-2-carboxylate], the “Inhibitory activity (%)” value is on record as 38%. The value for `C/C=C1/C(=O)N2C(C(=O)[O-])=C3CCCC[C@@H]3[C@H]12.[Na+]` [compound B, sodium (8S,9R)-10-((E)-ethylidene)-11-oxo-1-azatricyclo[7.2.0.0^3,8]undec-2-ene-2-carboxylate] was 23%. For the molecule `CC1(C)[C@H](C(=O)O)N2C(=O)C[C@H]2S1(=O)=O` [sulbactam, reference compound], the “Inhibitory activity (%)” value came to 50%.
